Experimental findings from US20260193219A1, “TRIAZINE DERIVATIVES FOR TREATING DISEASES RELATING TO NEUROTROPHINS” (AlzeCure Pharma AB, priority 2020, published 2026) are described below.

pEC50: −log10 of the molar value.

One data set deals with T1, TrkB (Homo sapiens, UniProt Q16620).
T1 construct: expressed in transfected cells; host or cells: U2OS
The data set can be described thus: In vitro Trk receptor modulation assay (Enzyme Fragment Complementation), U2OS cells over-expressing TrkB. The settings on record: compound pre-mixed with ligand (NGF), final 10 ng/mL, 3 hours, modulator mode. Format: cell-based. The source says:
(§1) A high throughput cell-based screen was used to identify positive modulators of TrkA and TrkB. The screen involves the use of cell-based assay overexpressing TrkA, or TrkB. The purpose of the assay is to identify compounds that modulate neurotrophin signalling (Forsell et al 2012). The assay can be used in inhibitor mode using a high concentration of ligand, in modulator mode using an intermediate concentration and in agonist mode using a low concentration of ligand.
(§2) The assay uses Enzyme Fragment Complementation (EFC) technique, which is a proximity-based assay. Briefly, cells used in this assay over-express two fusion proteins, i.e. the receptor, which can be one of TrkA or TrkB fused to a small peptide of beta-galactosidase and an adaptor protein, i.e. SHC1 (or any other Trk-adaptor protein) fused to the major part of beta-galactosidase. […] The proximity between the small activating peptide on the receptor and the major part of beta-galactosidase on the adaptor protein leads to an active beta-galactosidase enzyme. The activation of the receptor is quantified by measuring the amount of active beta-galactosidase by its conversion of a non-luminescent substrate into a luminescent product.
(§3) U2OS-cells, over-expressing TrkA or TrkB, were plated in 96- or 384-well plates and incubated overnight. On the following day, test compound was pre-mixed with ligand (NGF) and the ligand-compound mixture is then added to the cells to yield a final ligand concentration of 10 ng/mL. After 3 hours of incubation at room temperature, the incubation is stopped by the addition of a beta-galactosidase substrate mixture containing detergents. The substrate mixture is incubated for 60 minutes at ambient temperature. The luminescence is thereafter read by the use of a plate reader.

A short description of data set [1]: Human liver microsomal stability. The settings on record: human liver microsomes 0.5 mg/mL, 3 μM compound, NADPH, 37° C. Format: in vitro ADME. On the procedure: A 10 mM stock solution (in DMSO) was prepared for each compound. From the intermediate stock solution of 2 mM, a working solution of 0.5 mM was prepared by diluting the compound in Acetonitrile:water (50:50). The compound (1.8 μL of working solution) was spiked in 0.1 M potassium phosphate buffer (260.7 μL), pH 7.4 at a concentration of 3 μM (0.1% DMSO). Following this, human liver microsomes (pooled, Invitrogen, #HMMCPL) (7.5 μL; final protein conc. 0.5 mg/mL) were added. The aforementioned sample was incubated at 37° C. for 5 min. Subsequently, 30 μL of 10 mM NADPH prepared in 0.1 M potassium phosphate buffer was added (as a co-factor) to initiate the reaction. The samples were then incubated at 37° C. for 0, 20, 40, 60 and 120 min.
At each time point (0, 20, 40, 60 and 120 min), 40 μL of the samples were withdrawn and reactions were stopped using 360 μL chilled acetonitrile or methanol containing suitable internal standard (Carbamazepine). The samples were centrifuged and the supernatants was analyzed in duplicate by LC-MS/MS. The percent compound remaining at each time point was calculated with respect to that of the 0 min sample. Control samples were run without NADPH for initial and final time point and blank samples was prepared using DMSO (without the test compound).
For comparison, the experiment was also performed with known Trk receptor signalling modulator 1-methyl-3-[3-methyl-4-(4-trifluoromethanesulfonylphenoxy)phenyl]-1,3,5-triazinane-2,4,6-trione) (ponazuril). Ponazuril is metabolized very slowly in vivo and this prolonged exposure creates an increased risk of side effects if the compound is administered systemically. This causes significant challenges to the development of the compound as a systemic drug.
In general terms: Liver microsomes are a subcellular fraction often used to study metabolism.

The next data set concerns the target T2, TrkA (Homo sapiens, UniProt P04629).
T2 construct: expressed in transfected cells; host or cells: U2OS
Put plainly: In vitro Trk receptor modulation assay (Enzyme Fragment Complementation), U2OS cells over-expressing TrkA. Type of data set: cell-based. The settings on record: compound pre-mixed with ligand (NGF), final 10 ng/mL, 3 hours, modulator mode.
Source text: as §1, §2, §3

The subject of a further data set is C57/Bl6 mice. The data set can be described thus: Passive avoidance task in scopolamine-treated mice. Format: in vivo. The settings on record: mice treated with scopolamine 0.3 mg/kg s.c.; compound single s.c. administration 60 min prior to training, different doses. Here is the method: The passive avoidance (PA) is an aversive learning task based on classical (Pavlovian) fear conditioning that allows for analysis of both facilitation and impairment of memory function by adjusting the unconditioned stimulus, i.e. the electrical foot shock. Commonly a cognitive-impairing agent is administered to the animals to mimic the neurochemical disturbances present in various cognitive disorders e.g. cholinergic (scopolamine) and glutamatergic (MK-801) deficits.
Prior to testing, the animals are brought to the experimental room where they were allowed to habituate for 60 min. The test is conducted using a modified shuttle box with two communicating compartments of equal size with a small sliding door built into the separating wall and a stainless-steel bar floor. One of the compartments is not illuminated and thus black whereas the other compartment (the light one) is illuminated by an electric bulb, installed on the top of a plexiglass cover. The PA training is conducted in a single session. […] Latency to cross over into the dark compartment (training latency) is recorded. […] The latency to cross over into the dark compartment with all four feet is measured (retention latency) as well as time in bright compartment and a number of other relevant parameters (e.g. number of visits in the dark compartment). […]

T1 sequence (Q16620 32-822): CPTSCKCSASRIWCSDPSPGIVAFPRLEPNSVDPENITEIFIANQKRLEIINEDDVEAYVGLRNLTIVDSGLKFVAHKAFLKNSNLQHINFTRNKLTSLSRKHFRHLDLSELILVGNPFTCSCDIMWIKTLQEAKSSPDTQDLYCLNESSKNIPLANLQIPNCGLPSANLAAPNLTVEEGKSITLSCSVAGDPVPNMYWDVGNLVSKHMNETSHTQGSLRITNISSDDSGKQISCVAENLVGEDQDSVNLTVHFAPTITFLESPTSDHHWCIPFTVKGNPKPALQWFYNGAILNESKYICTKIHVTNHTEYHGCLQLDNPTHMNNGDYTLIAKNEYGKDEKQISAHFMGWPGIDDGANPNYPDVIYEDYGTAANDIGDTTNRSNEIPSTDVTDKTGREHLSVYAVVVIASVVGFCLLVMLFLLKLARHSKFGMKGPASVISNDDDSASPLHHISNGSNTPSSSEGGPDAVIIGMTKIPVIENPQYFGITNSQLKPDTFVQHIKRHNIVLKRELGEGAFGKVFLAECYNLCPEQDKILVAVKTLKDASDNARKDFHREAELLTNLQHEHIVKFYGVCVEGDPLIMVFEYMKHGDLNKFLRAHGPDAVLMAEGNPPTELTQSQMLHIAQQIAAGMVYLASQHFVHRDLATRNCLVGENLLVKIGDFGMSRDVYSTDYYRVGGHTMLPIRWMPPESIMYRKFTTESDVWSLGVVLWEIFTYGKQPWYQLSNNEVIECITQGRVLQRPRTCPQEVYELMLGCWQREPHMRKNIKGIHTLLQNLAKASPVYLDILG
T2 sequence (P04629 33-796): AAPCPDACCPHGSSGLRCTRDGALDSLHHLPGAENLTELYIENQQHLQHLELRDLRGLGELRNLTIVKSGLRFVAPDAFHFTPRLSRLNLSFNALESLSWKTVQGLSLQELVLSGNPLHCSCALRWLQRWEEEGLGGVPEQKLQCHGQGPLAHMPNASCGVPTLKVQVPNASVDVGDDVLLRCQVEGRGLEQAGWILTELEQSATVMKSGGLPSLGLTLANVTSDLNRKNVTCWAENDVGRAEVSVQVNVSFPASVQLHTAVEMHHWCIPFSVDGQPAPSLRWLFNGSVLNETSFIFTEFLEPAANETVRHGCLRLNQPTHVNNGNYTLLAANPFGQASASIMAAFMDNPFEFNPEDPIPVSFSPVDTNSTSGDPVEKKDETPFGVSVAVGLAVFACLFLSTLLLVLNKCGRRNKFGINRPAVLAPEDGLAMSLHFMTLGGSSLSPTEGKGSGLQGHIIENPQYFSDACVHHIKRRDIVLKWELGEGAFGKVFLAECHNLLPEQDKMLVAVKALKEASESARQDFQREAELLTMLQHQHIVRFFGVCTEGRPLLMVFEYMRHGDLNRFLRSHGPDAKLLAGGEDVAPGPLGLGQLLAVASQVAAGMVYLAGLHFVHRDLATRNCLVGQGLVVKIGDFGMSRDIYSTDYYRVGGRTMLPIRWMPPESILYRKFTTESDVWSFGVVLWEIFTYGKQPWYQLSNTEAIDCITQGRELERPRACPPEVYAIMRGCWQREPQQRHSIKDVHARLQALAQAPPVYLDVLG

A word on the pEC50: it is the EC50 on a negative log10 scale, so that one unit is a factor of ten. Higher therefore signals a low EC50. On to `CCc1cc(-n2c(=O)[nH]c(=O)n(-c3cccc(C)c3)c2=O)ccc1Oc1ccccc1` [Example 7, 1-(3-ethyl-4-phenoxyphenyl)-3-(3-methylphenyl)-1,3,5-triazinane-2,4,6-trione], for which the pEC50 was 7.05 at TrkB and 6.89 on TrkA. Also, the “% of parent compound metabolized after 120 min” value (shortened to “% of parent compound metabolized”) in data set [1] is recorded as 48.8%.

As to `Cc1cccc(-n2c(=O)[nH]c(=O)n(-c3ccc(Oc4ccccc4)c(OCC(=O)N4CCCC4)c3)c2=O)c1` [Example 9, 1-(3-methylphenyl)-3-{3-[2-oxo-2-(pyrrolidin-1-yl)ethoxy]-4-phenoxyphenyl}-1,3,5-triazinane-2,4,6-trione], the values for the pEC50 on TrkB and at TrkA were 6.82 and 6.68, respectively. Besides, the “% of parent compound metabolized” value in data set [1] was 82.8%.

For `COCc1cc(-n2c(=O)[nH]c(=O)n(-c3cccc(C)c3)c2=O)ccc1Oc1ccccc1` [Example 3, 1-[3-(methoxymethyl)-4-phenoxyphenyl]-3-(3-methylphenyl)-1,3,5-triazinane-2,4,6-trione], the pEC50 was 6.51 at TrkB and 6.48 at TrkA. Further, the “% of parent compound metabolized” value in data set [1] came to 82.0%. In the data set on C57/Bl6 mice, the “cognitive function, retention latency within the bright area (passive avoidance)” value is “improves cognitive function”.

`COCc1cccc(-n2c(=O)[nH]c(=O)n(-c3ccc(Oc4ccccc4)c(C)c3)c2=O)c1` [Example 2, 1-[3-(methoxymethyl)phenyl]-3-(3-methyl-4-phenoxyphenyl)-1,3,5-triazinane-2,4,6-trione]: the pEC50 on TrkB was 6.59; at TrkA, 6.37. Further, the “% of parent compound metabolized” value in data set [1] is 13.3%.

With `Cc1cc(-n2c(=O)[nH]c(=O)n(C)c2=O)ccc1Oc1ccc(S(=O)(=O)C(F)(F)F)cc1` [ponazuril, 1-methyl-3-[3-methyl-4-(4-trifluoromethanesulfonylphenoxy)phenyl]-1,3,5-triazinane-2,4,6-trione, reference compound], the “% of parent compound metabolized” value in data set [1] is reported as 3.1%.

As for `COc1ccc(-n2c(=O)[nH]c(=O)n(-c3ccc(Oc4ccccc4)c(C)c3)c2=O)cc1` [Example 8, 1-(4-methoxyphenyl)-3-(3-methyl-4-phenoxyphenyl)-1,3,5-triazinane-2,4,6-trione], the pEC50 at TrkB is 6.64; at TrkA, 6.46.

In the case of `Cc1cccc(-n2c(=O)[nH]c(=O)n(-c3ccc(Oc4ccccc4)c(CN4CCCC4=O)c3)c2=O)c1` [Example 15, 1-(3-methylphenyl)-3-{3-[(2-oxopyrrolidin-1-yl)methyl]-4-phenoxyphenyl}-1,3,5-triazinane-2,4,6-trione], the pEC50 on TrkB was 6.96; at TrkA, 7.40. For the same molecule, the “% of parent compound metabolized” value in data set [1] is 29.6%.

With `Cc1cccc(-n2c(=O)[nH]c(=O)n(-c3ccc(Oc4ccccc4)c(OCC(=O)N4CCC4)c3)c2=O)c1` [Example 12, 1-{3-[2-(azetidin-1-yl)-2-oxoethoxy]-4-phenoxyphenyl}-3-(3-methylphenyl)-1,3,5-triazinane-2,4,6-trione], the pEC50 was 6.66 on TrkB and 6.39 at TrkA.

Consider `Cc1cccc(-n2c(=O)[nH]c(=O)n(-c3ccc(Oc4ccccc4)c(OCC(=O)N4CCCCC4)c3)c2=O)c1` [Example 10, 1-(3-methylphenyl)-3-{3-[2-oxo-2-(piperidin-1-yl)ethoxy]-4-phenoxyphenyl}-1,3,5-triazinane-2,4,6-trione], for which the pEC50 was 6.49 on TrkB and 6.55 on TrkA. In addition, the “% of parent compound metabolized” value in data set [1] worked out at 99.8%.

As to `CSc1cc(-n2c(=O)[nH]c(=O)n(-c3cccc(C)c3)c2=O)ccc1Oc1ccccc1` [Example 14, 1-(3-methylphenyl)-3-[3-(methylsulfanyl)-4-phenoxyphenyl]-1,3,5-triazinane-2,4,6-trione], the pEC50 on TrkB was 6.52; at TrkA, 6.19. Moreover, in data set [1], the “% of parent compound metabolized” value came to 53.4%.

As for `Cc1cccc(-n2c(=O)[nH]c(=O)n(-c3ccc(Oc4ccccc4)c(CN4CCNC4=O)c3)c2=O)c1` [Example 5, 1-(3-methylphenyl)-3-{3-[(2-oxoimidazolidin-1-yl)methyl]-4-phenoxyphenyl}-1,3,5-triazinane-2,4,6-trione], the pEC50 at TrkB is 6.92; at TrkA, 6.52. Also, the “% of parent compound metabolized” value in data set [1] was found to be 15.4%.

Turning to `Cc1cc2cccc(-n3c(=O)[nH]c(=O)n(-c4ccc(Oc5ccccc5)c(C)c4)c3=O)c2o1` [Example 4, 1-(2-methyl-1-benzofuran-7-yl)-3-(3-methyl-4-phenoxyphenyl)-1,3,5-triazinane-2,4,6-trione], the pEC50 on TrkB was 6.57; on TrkA it was 6.52. Also, the “% of parent compound metabolized” value in data set [1] amounted to 37.7%.

Turning to `CCc1cc(-n2c(=O)[nH]c(=O)n(-c3ccccc3)c2=O)ccc1Oc1ccccc1` [Example 6, 1-(3-ethyl-4-phenoxyphenyl)-3-phenyl-1,3,5-triazinane-2,4,6-trione], the values for the pEC50 on TrkB and on TrkA were 6.66 and 6.68, respectively.

Take `Cc1cccc(-n2c(=O)[nH]c(=O)n(-c3ccc(Oc4ccccc4)c(OCC(=O)N4CCOCC4)c3)c2=O)c1` [Example 11, 1-(3-methylphenyl)-3-{3-[2-(morpholin-4-yl)-2-oxoethoxy]-4-phenoxyphenyl}-1,3,5-triazinane-2,4,6-trione]: the pEC50 at TrkB was 6.74; on TrkA it was 6.57. The “% of parent compound metabolized” value in data set [1] was 57.3%.

Turning to `CSc1cc(-n2c(=O)[nH]c(=O)n(-c3ccccc3)c2=O)ccc1Oc1ccccc1` [Example 13, 1-[3-(methylsulfanyl)-4-phenoxyphenyl]-3-phenyl-1,3,5-triazinane-2,4,6-trione], the figures for the pEC50 on TrkB and at TrkA were 6.42 and 6.19, respectively. In data set [1], the “% of parent compound metabolized” value came to 4.7%.
